Results: ChEMBL document CHEMBL3124747, “Formosusin A, a novel specific inhibitor of mammalian DNA polymerase β from the fungus Paecilomyces formosus” (Bioorg Med Chem, 2014)

What was measured:
[1] = Inhibition of Thermus aquaticus DNA polymerase assessed as inhibition of incorporation of dTTP into poly(dA)/oligo(dT)18 after 60 mins
DNA polymerase lambda = molecular target: T1, DNA polymerase lambda (Homo sapiens, UniProt Q9UGP5); assay: Inhibition of human recombinant His-tagged DNA polymerase lambda expressed in Escherichia coli assessed as inhibition of incorporation of dTTP into poly(dA)/oligo(dT)18 after 60 mins
T1 sequence (Q9UGP5 whole entry): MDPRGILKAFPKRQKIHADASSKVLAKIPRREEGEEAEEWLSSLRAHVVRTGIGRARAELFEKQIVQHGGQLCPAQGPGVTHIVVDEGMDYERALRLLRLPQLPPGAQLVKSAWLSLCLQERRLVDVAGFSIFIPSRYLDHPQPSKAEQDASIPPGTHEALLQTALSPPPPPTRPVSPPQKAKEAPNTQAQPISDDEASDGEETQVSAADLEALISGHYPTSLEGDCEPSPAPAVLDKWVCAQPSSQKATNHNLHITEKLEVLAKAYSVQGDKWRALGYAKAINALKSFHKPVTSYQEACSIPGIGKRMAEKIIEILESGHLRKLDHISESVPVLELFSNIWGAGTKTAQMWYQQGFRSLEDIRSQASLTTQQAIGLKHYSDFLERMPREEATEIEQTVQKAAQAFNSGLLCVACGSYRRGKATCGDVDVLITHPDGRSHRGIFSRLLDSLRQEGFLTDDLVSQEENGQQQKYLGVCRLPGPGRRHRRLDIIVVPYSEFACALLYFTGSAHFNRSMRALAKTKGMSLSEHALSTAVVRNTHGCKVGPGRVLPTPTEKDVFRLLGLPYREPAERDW

[2] = molecular target: T2, DNA-directed DNA polymerase (Enterobacteria phage T4, UniProt P04415); assay: Inhibition of T4 bacteriophage DNA polymerase assessed as inhibition of incorporation of dTTP into poly(dA)/oligo(dT)18 after 60 mins; parameters: species or system Tequatrovirus T4
T2 sequence (P04415 whole entry): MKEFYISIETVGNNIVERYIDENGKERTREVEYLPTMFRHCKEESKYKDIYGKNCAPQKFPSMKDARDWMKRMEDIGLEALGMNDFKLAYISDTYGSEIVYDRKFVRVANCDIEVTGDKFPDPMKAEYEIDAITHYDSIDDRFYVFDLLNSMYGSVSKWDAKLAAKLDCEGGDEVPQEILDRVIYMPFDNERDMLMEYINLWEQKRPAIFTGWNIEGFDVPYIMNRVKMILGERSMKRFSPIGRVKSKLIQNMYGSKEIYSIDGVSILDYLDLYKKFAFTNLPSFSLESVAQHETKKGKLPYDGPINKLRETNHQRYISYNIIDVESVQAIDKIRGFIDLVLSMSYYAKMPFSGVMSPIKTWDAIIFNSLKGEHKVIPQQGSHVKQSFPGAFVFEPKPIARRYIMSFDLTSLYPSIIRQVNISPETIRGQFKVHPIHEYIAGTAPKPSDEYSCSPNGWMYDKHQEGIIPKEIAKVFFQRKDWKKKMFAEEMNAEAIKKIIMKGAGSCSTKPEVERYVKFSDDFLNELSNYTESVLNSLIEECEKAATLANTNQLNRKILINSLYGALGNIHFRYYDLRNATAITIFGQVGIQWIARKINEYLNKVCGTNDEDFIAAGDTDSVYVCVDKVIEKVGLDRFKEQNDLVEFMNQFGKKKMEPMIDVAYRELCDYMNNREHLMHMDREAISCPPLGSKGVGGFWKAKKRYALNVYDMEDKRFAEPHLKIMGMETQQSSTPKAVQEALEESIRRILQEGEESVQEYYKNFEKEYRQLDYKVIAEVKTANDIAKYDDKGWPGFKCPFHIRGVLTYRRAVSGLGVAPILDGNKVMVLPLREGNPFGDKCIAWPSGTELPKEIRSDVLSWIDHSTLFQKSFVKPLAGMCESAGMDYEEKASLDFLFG

[3] = molecular target: T3, DNA polymerase delta catalytic subunit (Homo sapiens, UniProt P28340); assay: Inhibition of DNA polymerase delta isolated from human MOLT4 cells assessed as inhibition of incorporation of dTTP into poly(dA)/oligo(dT)18 after 60 mins; assay type: cell-free, MOLT-4
T3 sequence (P28340 whole entry): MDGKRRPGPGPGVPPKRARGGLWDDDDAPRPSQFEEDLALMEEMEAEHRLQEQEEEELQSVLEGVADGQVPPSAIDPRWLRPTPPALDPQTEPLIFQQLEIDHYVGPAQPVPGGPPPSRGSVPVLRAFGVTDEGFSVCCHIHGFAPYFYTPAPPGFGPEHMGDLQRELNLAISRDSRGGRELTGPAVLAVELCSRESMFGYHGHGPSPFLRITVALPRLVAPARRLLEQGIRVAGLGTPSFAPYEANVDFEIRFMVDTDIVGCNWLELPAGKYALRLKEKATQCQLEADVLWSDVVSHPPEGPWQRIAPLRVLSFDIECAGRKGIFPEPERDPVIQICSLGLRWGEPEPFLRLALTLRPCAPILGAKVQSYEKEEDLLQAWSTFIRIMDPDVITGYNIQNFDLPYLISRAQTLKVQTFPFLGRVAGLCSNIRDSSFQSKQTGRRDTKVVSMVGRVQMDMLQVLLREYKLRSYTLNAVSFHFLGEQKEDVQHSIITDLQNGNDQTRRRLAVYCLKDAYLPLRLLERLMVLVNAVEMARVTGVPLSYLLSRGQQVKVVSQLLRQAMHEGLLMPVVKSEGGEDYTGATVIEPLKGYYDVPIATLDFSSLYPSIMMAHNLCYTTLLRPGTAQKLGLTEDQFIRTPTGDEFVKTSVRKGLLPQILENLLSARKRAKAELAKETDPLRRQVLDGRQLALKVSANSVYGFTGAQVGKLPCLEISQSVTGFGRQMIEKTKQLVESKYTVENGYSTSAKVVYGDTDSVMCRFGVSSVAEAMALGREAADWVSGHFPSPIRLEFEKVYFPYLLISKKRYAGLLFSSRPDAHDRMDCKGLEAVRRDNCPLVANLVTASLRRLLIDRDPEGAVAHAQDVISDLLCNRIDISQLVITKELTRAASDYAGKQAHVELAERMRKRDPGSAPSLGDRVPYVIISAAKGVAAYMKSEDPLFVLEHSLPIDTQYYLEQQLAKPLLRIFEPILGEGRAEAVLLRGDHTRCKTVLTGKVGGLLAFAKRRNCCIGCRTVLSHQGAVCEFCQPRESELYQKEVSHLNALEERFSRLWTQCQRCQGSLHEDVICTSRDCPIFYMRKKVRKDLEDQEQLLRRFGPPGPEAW

[4] = molecular target: DNA nucleotidylexotransferase (Bos taurus, UniProt P06526); assay: Inhibition of calf thymus TdT assessed as inhibition of incorporation of dTTP into oligo(dT)18(3'OH) after 60 mins
Chain of DNA nucleotidylexotransferase (P06526 whole entry, the tested form may be a part): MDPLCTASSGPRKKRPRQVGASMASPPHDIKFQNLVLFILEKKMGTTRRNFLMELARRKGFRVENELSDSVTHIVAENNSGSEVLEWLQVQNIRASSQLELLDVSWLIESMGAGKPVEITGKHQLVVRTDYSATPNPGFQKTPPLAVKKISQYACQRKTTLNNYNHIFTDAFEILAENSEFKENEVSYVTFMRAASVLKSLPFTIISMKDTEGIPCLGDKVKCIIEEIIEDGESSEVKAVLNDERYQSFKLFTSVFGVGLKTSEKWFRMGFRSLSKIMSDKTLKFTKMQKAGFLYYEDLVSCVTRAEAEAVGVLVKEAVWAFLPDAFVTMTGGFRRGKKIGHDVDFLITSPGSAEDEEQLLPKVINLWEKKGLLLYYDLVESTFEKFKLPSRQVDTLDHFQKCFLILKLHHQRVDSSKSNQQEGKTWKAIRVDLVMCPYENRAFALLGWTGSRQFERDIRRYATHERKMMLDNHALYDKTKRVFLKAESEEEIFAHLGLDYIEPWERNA

[5] = Inhibition of Escherichia coli polymerase DNA polymerase 1 klenow fragment assessed as inhibition of incorporation of dTTP into poly(dA)/oligo(dT)18 after 60 mins
[6] = Inhibition of calf thymus DNA polymerase alpha assessed as inhibition of incorporation of dTTP into poly(dA)/oligo(dT)18 after 60 mins; parameters: species or system Bos taurus

Measured: IC50

CCCC[C@@H](O)/C=C(C)/C=C/C=C\C(=O)N1CCCC1=O
> 200 µM: all assays above

CC(/C=C/CCC(=O)N1CCCC1=O)=C\C1CCCCO1 (stereo not drawn)
> 200 µM: all assays above

CCCC[C@@H](O)/C=C(C)/C=C/C=C/C(=O)N1CCCC1=O [PECILOCIN]
> 200 µM: all assays above

CCCCC(=O)/C=C(C)/C=C/CCC(=O)N1CCCC1=O
> 200 µM: all assays above
